The results in this text go back to patent US12545704B2, “Peptide for treating inflammation and wounds” (NIBEC CO., LTD., priority 2019, dated 2026).

One experiment has as its system E-cadherin. Description: Real-time RT-PCR of wound-healing marker E-cadherin in colonic epithelial cells. The experiment is classed as cell-based. The settings on record: Caco-2 cells; 50 and 100 μg/ml; 3 days; FIG. 4. As for the experimental part: (§1) In order to confirm the expression level of the wound-healing marker in colonic epithelial cells (Caco-2 cell, ATCC® HTB-37™) by the peptide according to the present invention, colonic epithelial cells were dispensed in an amount of 5×10^6 cells/well in a 6-well plate and then cultured for 24 hours in DMEM (Dulbecco's Modified Eagle Medium, Gibco). The cells were treated with the peptides of SEQ ID NOS: 1, 2, and 3 at concentrations of 50 and 100 μg/ml and then cultured for up to 3 days. After 3 days, the cells were harvested and the gene expression levels of E-cadherin protein, which is highly expressed in colonic epithelial cells, and ZO-1 protein, which is highly expressed at the tight junction between colonic epithelial cells, were measured through real-time RT-PCR.
(§2) RNA was extracted from the obtained cells using TRIzol, and cDNA was synthesized using a kit from Thermo Scientific (cat. No. K1641). The same amount of cDNA was amplified by 40 cycles at 95° C.-60° C. using a SYBR green PCR master mix and a StepOnePlus™ Real-Time PCR System available from Applied Biosystems, and the ΔΔct values of individual groups were compared. The nucleotide sequences of the PCR primers used for amplification of each gene are as follows.

The target of experiment [1] is T1, type VII collagen (Homo sapiens, UniProt Q02388).
T1 construct: purchased MyBioSource, Inc. MBS2018615
Kind of experiment: Slot blotting, selectivity to collagen types: type VII (Experimental Example 2). It counts as binding. Here is the method: (§3) In order to confirm the selectivity of peptides of SEQ ID NOS: 1 to 3 to collagen types, slot blotting was performed for types I, IV and VII collagen. The NC membrane was activated with TBST, and the peptides of SEQ ID NOS: 1, 2 and 3 were placed in each well at different concentrations (5, 10, 25, 50, and 100 μg/mL) and allowed to bind to the NC membrane in a vacuum for 2 hours. A 1% solution of each of types I, IV and VII collagen (MyBioSource, Inc., San Diego, CA, USA, MBS2018615) was added to the peptide-bound membrane and allowed to bind to the membrane in a vacuum for 2 hours. The membrane was washed with TBST, and the membrane to which the peptides and types I, IV, and VII collagen were attached was allowed to react with a primary rabbit anti-human type VII collagen antibody (MyBioSource, Inc., San Diego, CA, USA, MBS2004594) at a dilution ratio of 1:800 and with a secondary antibody goat anti-rabbit Ig G (BETHYL Lab., Montgomery, TX, USA, A90-116P) at a dilution ratio of 1:5000. The reacted membrane was washed with TBST, and a chemiluminescence test was performed using WEST-one.

For the next experiment, the system named is type IV collagen. Description: Slot blotting, selectivity to collagen types: type IV (Experimental Example 2). Particulars: peptide up to 100 μg/mL, FIG. 3. It counts as binding. As for the experimental part:
as §3

Experiment [2] concerns colonic epithelial cells (Caco-2 cell). Kind of experiment: Proliferation of colonic epithelial cells (CCK-8). The experiment is classed as cell-based. Particulars: 100 μM, 3rd day, FIG. 5. Here is the method:
In order to confirm the proliferation and migration in colonic epithelial cells (Caco-2 cell, ATCC® HTB-37™) by the peptide according to the present invention, the cells were dispensed in an amount of 5×10^3 cells/well in a 96-well plate and then cultured for 24 hours in DMEM (Dulbecco's Modified Eagle Medium, Gibco). The peptides (SEQ ID NOS: 1, 2, and 3) were dispensed at a concentration of 100 μM in the cells and then cultured for up to 3 days at intervals of 1 day. The cell count was measured using a CCK-8 (Cell Counting Kit-8, CK04, Dojindo Lab.). After 1, 2, and 3 days, the medium containing the peptide was removed, 10% of a CCK-8 solution was added to fresh DMEM, and 100 μl thereof was then dispensed. After 1 hour and 30 minutes, absorbance was measured at 450 nm.

Experiment [3] addresses T1, type VII collagen. Kind of experiment: Slot blotting, binding ability to type VII collagen (Experimental Example 1). The settings on record: peptide at 5, 10 and 20 μg/mL, FIG. 2. As for the experimental part: Slot blotting was performed to confirm the ability of the peptides of SEQ ID NOS: 1 and 3 to bind to type VII collagen. The NC membrane was activated with TBST, and the peptides of SEQ ID NOS: 1 and 3 were placed in each well at different concentrations (5, 10, and 20 μg/mL) and allowed to bind to the NC membrane in a vacuum for 2 hours. A 1% solution of type VII collagen (MyBioSource, Inc., San Diego, CA, USA, MBS2018615) was added to the peptide-bound membrane and allowed to bind to the membrane in a vacuum for 2 hours. After washing the membrane with TBST, the membrane to which the peptide and type VII collagen were attached was allowed to react with a primary rabbit anti-human type VII collagen antibody (MyBioSource, Inc., San Diego, CA, USA, MBS2004594) at a dilution ratio of 1:800 and with a secondary antibody goat anti-rabbit Ig G (BETHYL Lab., Montgomery, TX, USA, A90-116P) at a dilution ratio of 1:5000. The reacted membrane was washed with TBST, and a chemiluminescence test was performed using WEST-one. Based on the results of measurement of the ability of the peptide to bind to type VII collagen depending on the peptide concentration, when the concentration of the peptide of SEQ ID NO: 1 was 10 μg/mL or more or the concentration of the peptide of SEQ ID NO: 3 was 5 μg/mL or more, the ability thereof to bind to type VII collagen was confirmed (FIG. 2).

The test system of another experiment is Caco-2 cells. Description: Scratch migration of colonic epithelial cells. The settings on record: Caco-2 scratch, 100 μM, FIG. 6. It counts as cell-based. Here is the method:
In order to measure cell migration ability, Caco-2 cells (1×10^6 cells) were placed in a 6-well plate and cultured in DMEM supplemented with 10% fetal bovine serum (FBS) and 1% antibiotic-antimycotic solution (Gibco, Grand Island, N.Y., USA). The cells were washed with PBS and allowed to stand overnight in a medium containing 2% FBS. The central portion of the cell layer was scratched using a sterile 200 μl plastic pipette tip. The scratched cell layer was washed twice with PBS to remove unadhered cells. Each of the peptides of SEQ ID NOS: […] at a concentration of 100 μM to the medium, followed by culture for up to 48 hours. The extent of cell migration toward the center from the scratched edges was measured using an Olympus CKX41 inverted microscope (magnification: ×20).

In the next experiment the target is T2, type I collagen (Homo sapiens, UniProt P02452+P08123).
T2 construct: purchased MyBioSource, Inc
Kind of experiment: Slot blotting, selectivity to collagen types: type I (Experimental Example 2). The experiment is classed as binding. Particulars: peptide at 5, 10, 25, 50 and 100 μg/mL, FIG. 3. As for the experimental part: as §3

In a further experiment the test system is ZO-1. Description: Real-time RT-PCR of wound-healing marker ZO-1 in colonic epithelial cells. It counts as cell-based. The settings on record: Caco-2 cells; 50 and 100 μg/ml; 3 days; FIG. 4. As for the experimental part:
as §1, §2
(In general: Quantitative PCR measures a nucleic acid by following its amplification.)

Where only a bound is given, the exact number is not on record here.

T1 sequence (Q02388 17-2944): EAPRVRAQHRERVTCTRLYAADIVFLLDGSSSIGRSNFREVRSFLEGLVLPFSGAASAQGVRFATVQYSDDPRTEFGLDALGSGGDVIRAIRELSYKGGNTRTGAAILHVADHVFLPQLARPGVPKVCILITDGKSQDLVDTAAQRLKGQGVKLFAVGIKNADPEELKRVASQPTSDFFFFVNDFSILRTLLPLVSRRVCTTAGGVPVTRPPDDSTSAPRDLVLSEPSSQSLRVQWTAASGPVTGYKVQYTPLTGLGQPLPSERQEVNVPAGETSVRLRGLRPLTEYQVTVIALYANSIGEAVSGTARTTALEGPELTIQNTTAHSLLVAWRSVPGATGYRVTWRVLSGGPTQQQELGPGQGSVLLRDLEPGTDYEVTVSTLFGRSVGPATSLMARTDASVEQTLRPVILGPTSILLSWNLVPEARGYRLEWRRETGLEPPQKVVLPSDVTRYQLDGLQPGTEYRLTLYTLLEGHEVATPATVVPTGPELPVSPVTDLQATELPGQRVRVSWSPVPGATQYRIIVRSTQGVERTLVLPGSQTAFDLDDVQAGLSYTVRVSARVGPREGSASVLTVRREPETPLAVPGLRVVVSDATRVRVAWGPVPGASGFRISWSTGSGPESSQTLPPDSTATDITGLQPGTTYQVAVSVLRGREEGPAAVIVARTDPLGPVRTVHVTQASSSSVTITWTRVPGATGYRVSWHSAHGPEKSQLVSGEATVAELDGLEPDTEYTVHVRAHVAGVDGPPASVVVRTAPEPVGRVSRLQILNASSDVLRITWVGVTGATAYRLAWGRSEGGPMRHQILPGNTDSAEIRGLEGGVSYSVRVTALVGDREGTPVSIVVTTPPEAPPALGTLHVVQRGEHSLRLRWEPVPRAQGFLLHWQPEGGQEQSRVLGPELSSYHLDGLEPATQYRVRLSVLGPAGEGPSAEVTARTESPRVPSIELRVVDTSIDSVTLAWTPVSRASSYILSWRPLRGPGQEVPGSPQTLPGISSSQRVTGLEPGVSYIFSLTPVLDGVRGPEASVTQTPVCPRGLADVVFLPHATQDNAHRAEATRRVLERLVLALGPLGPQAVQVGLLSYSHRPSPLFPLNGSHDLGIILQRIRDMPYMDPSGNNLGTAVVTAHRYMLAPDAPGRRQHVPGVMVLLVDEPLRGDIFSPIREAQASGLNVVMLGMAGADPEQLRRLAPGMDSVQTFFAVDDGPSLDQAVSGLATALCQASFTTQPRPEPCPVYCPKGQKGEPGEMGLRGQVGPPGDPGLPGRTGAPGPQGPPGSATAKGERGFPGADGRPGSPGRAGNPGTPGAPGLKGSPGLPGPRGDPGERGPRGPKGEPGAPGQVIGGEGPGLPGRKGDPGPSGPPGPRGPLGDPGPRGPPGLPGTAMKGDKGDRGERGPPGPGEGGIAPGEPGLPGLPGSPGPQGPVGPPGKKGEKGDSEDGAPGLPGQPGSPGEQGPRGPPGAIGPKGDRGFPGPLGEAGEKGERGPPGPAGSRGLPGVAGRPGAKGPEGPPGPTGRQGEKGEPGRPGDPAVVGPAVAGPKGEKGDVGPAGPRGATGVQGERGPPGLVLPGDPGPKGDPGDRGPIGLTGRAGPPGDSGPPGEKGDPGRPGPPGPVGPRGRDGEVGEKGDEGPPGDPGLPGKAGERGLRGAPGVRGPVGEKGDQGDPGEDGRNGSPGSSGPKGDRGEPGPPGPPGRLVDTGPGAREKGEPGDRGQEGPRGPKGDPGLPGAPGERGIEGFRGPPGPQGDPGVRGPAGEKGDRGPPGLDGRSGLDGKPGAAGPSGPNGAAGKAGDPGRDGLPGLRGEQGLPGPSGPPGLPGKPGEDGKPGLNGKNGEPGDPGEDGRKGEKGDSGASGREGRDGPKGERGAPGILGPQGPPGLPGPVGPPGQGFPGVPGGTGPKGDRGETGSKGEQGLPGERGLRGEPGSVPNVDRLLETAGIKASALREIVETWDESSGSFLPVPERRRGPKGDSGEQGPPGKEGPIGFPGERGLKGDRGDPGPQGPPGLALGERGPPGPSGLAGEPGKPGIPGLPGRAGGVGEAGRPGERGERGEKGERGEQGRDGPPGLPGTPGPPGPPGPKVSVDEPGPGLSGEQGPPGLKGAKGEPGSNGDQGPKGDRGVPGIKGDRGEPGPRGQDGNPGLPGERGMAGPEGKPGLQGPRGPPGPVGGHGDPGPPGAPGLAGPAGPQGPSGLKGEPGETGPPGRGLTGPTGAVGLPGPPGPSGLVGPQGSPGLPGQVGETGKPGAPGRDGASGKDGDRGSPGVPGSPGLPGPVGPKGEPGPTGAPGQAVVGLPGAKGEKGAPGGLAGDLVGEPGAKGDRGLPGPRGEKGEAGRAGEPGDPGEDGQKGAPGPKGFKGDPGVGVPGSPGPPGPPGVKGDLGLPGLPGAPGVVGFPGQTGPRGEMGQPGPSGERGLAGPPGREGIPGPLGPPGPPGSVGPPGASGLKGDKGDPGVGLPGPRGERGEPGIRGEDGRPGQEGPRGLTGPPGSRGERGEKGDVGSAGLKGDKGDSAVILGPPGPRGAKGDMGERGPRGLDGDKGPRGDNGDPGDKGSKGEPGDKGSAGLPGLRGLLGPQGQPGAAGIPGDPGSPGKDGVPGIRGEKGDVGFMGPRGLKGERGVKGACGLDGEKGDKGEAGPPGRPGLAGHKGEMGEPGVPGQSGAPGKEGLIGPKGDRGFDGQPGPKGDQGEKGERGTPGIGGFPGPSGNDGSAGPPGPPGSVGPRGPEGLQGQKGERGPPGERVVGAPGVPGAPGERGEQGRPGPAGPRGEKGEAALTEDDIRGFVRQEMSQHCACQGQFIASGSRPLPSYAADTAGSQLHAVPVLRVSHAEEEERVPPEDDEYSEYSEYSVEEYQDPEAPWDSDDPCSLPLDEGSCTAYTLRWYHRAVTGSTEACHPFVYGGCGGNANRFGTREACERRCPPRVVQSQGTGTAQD
T2 sequence (P02452 162-1218): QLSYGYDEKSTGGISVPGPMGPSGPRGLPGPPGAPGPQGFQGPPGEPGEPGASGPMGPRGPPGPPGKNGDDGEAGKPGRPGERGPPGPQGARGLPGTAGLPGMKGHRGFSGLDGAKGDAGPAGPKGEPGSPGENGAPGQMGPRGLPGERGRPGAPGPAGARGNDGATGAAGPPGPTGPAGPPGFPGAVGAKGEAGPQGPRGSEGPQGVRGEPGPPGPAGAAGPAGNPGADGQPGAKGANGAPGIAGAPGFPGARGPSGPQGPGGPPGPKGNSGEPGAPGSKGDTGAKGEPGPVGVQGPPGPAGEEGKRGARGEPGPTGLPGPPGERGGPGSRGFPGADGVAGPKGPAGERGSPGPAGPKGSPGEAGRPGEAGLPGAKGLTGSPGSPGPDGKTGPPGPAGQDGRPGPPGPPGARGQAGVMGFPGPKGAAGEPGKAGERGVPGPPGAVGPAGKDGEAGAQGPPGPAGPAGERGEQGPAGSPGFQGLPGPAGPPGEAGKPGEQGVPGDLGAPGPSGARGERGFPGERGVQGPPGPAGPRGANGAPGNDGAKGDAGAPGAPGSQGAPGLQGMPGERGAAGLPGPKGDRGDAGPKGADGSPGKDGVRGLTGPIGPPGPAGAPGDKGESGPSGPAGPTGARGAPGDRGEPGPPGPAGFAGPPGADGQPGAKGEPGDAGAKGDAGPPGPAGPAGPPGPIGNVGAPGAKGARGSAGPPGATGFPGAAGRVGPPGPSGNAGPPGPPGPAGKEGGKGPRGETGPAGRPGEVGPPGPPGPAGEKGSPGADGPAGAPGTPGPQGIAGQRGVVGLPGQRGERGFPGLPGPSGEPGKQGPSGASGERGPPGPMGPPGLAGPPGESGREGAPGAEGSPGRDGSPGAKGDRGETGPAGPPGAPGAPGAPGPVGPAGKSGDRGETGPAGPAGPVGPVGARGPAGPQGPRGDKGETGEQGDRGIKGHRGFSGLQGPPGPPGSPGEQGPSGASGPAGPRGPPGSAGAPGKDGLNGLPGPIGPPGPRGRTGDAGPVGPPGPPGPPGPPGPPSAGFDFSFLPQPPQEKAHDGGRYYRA
T2 sequence (P08123 80-1119): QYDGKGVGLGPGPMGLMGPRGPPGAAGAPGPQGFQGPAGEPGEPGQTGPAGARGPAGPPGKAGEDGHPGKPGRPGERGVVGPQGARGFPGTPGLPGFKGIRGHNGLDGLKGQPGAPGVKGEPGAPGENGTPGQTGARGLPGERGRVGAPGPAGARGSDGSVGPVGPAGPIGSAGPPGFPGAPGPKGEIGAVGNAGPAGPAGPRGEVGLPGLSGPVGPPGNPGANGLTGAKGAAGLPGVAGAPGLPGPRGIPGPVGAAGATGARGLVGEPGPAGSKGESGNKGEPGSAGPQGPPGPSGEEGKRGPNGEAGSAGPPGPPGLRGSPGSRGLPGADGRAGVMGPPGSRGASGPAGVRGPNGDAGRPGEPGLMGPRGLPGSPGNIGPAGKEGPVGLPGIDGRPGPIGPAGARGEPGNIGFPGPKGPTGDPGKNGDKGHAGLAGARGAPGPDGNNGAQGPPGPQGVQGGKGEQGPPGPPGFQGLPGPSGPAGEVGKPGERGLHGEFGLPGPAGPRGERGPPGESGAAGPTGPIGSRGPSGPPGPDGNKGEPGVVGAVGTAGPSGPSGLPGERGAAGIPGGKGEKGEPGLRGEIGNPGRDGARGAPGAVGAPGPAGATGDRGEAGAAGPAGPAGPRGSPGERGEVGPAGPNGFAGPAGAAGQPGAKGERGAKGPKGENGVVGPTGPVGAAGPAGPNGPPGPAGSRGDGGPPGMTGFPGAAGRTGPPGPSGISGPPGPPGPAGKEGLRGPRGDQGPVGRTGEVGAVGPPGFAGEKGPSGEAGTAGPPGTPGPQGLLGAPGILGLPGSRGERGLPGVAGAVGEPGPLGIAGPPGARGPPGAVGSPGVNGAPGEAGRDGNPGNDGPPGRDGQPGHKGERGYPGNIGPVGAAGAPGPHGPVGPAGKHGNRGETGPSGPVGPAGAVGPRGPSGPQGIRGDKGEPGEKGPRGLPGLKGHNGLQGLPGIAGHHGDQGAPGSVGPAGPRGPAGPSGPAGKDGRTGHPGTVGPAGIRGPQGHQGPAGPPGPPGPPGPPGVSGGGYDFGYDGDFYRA

For “LTEFPLRMRDWLKN (Human osteonectin 160-173) [SEQ ID NO: 3]”, the “gene expression of E-cadherin” value with E-cadherin was “increased with an increase in the concentration of the peptide”. For the same sequence, the “selectivity to type VII collagen versus types I and IV collagen” value with type VII collagen [1] is listed as “higher selectivity to type VII collagen”. Besides, the “peptide concentration at which binding to type VII collagen was observed” value in the experiment with type VII collagen [1] (peptide at 5, 10, 25, 50 and 100 μg/mL, FIG. 3) is on record as “at least 10 μg/mL”. Moreover, in the experiment on type IV collagen, the “binding to type IV collagen” value is “did not bind”. In addition, the “cell proliferation rate compared to the control group (cells not treated with the peptide)” value in experiment [2] is reported as 51%. The “peptide concentration at which the ability to bind to type VII collagen was confirmed” value in the experiment with type VII collagen [3] was at least 5 µg/mL. For the same sequence, the migration area in the experiment with Caco-2 cells (2nd day) is 56%. The “cell migration compared to cells not treated with the peptide” value in the experiment with Caco-2 cells (up to 48 hours) was “increased cell migration”. In the experiment with type I collagen, the “peptide concentration at which binding to type I collagen was observed” value is 100 µg/mL. In addition, the “gene expression of ZO-1” value with ZO-1 is listed as “increased with an increase in the concentration of the peptide”.
